Assay results published in patent US12076464B2, “Drug eluting shape memory foam” (The Texas A&M University System, priority 2019, dated 2024).

Columns and labels:
Type in all cases: physicochemical
[1] = Solubility in DMSO and water
[2] = Drug uptake (loading) onto or into SMP foam from drug/PVA solutions
Procedure: An embodiment includes a method for creating a drug-eluting SMP foam. The method includes incubating the foam in a 0.017 mg/mL acriflavine solution (e.g., 1 mg/mL in acriflavine solution dimethyl sulfoxide (DMSO)) that is mixed with varying PVA solutions of 0%, 1%, 2%, 3%, 10% (wt./vol) overnight on a rotator at room temperature (n=3). Different PVA concentrations may be used to increase drug viscosity and drug uptake onto or into the foam. In other embodiments PVA is held constant and acriflavine concentrations are varied (which changes the PVA viscosity). Foams may then be removed from the respective drug/PVA solutions and dried in a vacuum chamber for 5 days. The foams may then be incubated in 0.4 mL phosphate-buffered saline (PBS) at 37° C. Supernatants may be removed at various time points and measured for fluorescence at 416/514 nm (Ex/Em). In an embodiment acriflavine is used as a cargo in the free drug form (which helps illustrate the release profile for drug solutions with different PVA concentrations). […] This may be due, at least in part, to the increased viscosity of the drug when combined with PVA, which enables the drug to be trapped within or on the pores present in the foam. […]

[3] = In vitro release of acriflavine from SMP foams into PBS at 37° C., fluorescence of supernatants
Procedure: An embodiment includes a method for creating a drug-eluting SMP foam. The method includes incubating the foam in a 0.017 mg/mL acriflavine solution (e.g., 1 mg/mL in acriflavine solution dimethyl sulfoxide (DMSO)) that is mixed with varying PVA solutions of 0%, 1%, 2%, 3%, 10% (wt./vol) overnight on a rotator at room temperature (n=3). Different PVA concentrations may be used to increase drug viscosity and drug uptake onto or into the foam. In other embodiments PVA is held constant and acriflavine concentrations are varied (which changes the PVA viscosity). Foams may then be removed from the respective drug/PVA solutions and dried in a vacuum chamber for 5 days. The foams may then be incubated in 0.4 mL phosphate-buffered saline (PBS) at 37° C. Supernatants may be removed at various time points and measured for fluorescence at 416/514 nm (Ex/Em). Regarding in vitro release of acriflavine from HDI-based SMP foams, see FIG. 1. […] This may be because of the increased loading of acriflavine that is due to PVA (and PVA's affinity for the foam). […] In vitro release of acriflavine from non-reticulated TMHDI 60 foam is addressed in FIG. 3.

Row | Compound | solubility [1] | drug uptake onto or into the foam ([2]; drug solution without PVA (0% PVA), compared to solutions with increasing PVA concentration) | drug uptake onto or into the foam ([2]; increasing PVA concentrations, FIGS. 1, 2, 3) | acriflavine release from SMP foams (non-cumulative release curve) ([3]; HDI-based SMP foams, FIG. 1, increasing PVA concentration) | release profile ([3]; drug solution with 0% PVA) | acriflavine release from SMP foams (non-cumulative release curve) ([3]; non-reticulated TMHDI 60 (TH60) SMP foams, FIG. 3, increasing PVA concentration) | acriflavine release from SMP foams (non-cumulative release curve) ([3]; reticulated HH80 SMP foams, FIG. 2, increasing PVA concentration) | release profile ([3]; solutions with higher PVA concentrations)
1 | COc1cccc2c1C(=O)c1c(O)c3c(c(O)c1C2=O)C[C@@](O)(C(=O)CO)C[C@@H]3O[C@H]1C[C@H](N)[C@H](O)[C@H](C)O1 [Doxorubicin] | soluble in both DMSO and water |  |  |  |  |  |  | 
2 | Acriflavine | soluble in both DMSO and water | less drug uptake | increased drug uptake | increases (or at least differs) with increasing PVA concentration | delayed burst release | increased (or at least differs) with increasing PVA concentration | increased (or at least differs) with increasing PVA concentration | immediate release
